Laboratory results as given in ChEMBL document CHEMBL3632483, “Synthesis and pharmacological evaluation of piperidine (piperazine)-substituted benzoxazole derivatives as multi-target antipsychotics” (Bioorg Med Chem Lett, 2015).

How the values were obtained:
[1] = molecular target: D(2) dopamine receptor (Rattus norvegicus, UniProt P61169); test: Displacement of [3H]spiperone from dopaminergic D2 receptor in rat striatum homogenates after 60 mins by liquid scintillation counting
[2] = molecular target: T1, 5-hydroxytryptamine receptor 1A (Rattus norvegicus, UniProt P19327); test: Displacement of [3H]8-OH-DPAT from 5-HT1A receptor in rat cerebral cortex homogenates after 60 mins by liquid scintillation counting; type: tissue-based
T1 sequence (P19327 whole entry): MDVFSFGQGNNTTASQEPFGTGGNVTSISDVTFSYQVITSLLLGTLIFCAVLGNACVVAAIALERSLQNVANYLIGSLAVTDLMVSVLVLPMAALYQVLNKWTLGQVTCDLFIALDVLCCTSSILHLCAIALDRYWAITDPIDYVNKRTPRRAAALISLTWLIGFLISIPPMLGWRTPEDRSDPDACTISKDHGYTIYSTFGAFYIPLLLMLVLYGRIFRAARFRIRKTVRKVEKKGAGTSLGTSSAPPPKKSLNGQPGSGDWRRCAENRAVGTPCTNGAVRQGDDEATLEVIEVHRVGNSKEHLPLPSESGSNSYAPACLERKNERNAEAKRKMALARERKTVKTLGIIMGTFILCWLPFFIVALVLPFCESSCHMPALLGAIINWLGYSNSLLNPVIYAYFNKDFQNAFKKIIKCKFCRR

[3] = molecular target: 5-hydroxytryptamine receptor 2A (Rattus norvegicus, UniProt P14842); test: Displacement of [3H]ketanserine from 5-HT2A receptor in rat cerebral cortex homogenates after 60 mins by liquid scintillation counting; type: tissue-based
[4] = Acute toxicity in Sprague-Dawley rat; type: organism-based; settings: in vivo
[5] = molecular target: Voltage-gated inwardly rectifying potassium channel KCNH2 (Homo sapiens, UniProt Q12809); test: Inhibition of human ERG expressed in HEK293 cells by whole-cell patch clamp method; type: cell-based
[6] = test system: Mus musculus; test: Neurotoxicity in Chinese Kun Ming mouse assessed as locomotor activity by measuring total distance traveled at 1 mg/kg, po administered 1 hr before test measured for 10 mins (reference value: 13415.6 +/- 9555.8 millimeter); type: toxicity, organism-based; settings: in vivo
[7] = test system: Mus musculus; test: Neurotoxicity in Chinese Kun Ming mouse assessed as locomotor activity by measuring total distance traveled at 0.3 mg/kg, po administered 1 hr before test measured for 10 mins (reference value: 13415.6 +/- 9555.8 millimeter); type: toxicity, organism-based; settings: in vivo
[8] = test system: Mus musculus; test: Neurotoxicity in Chinese Kun Ming mouse assessed as locomotor activity by measuring total distance traveled at 0.1 mg/kg, po administered 1 hr before test measured for 10 mins (reference value: 13415.6 +/- 9555.8 millimeter); type: toxicity, organism-based; settings: in vivo
[9] = test system: Mus musculus; test: Toxicity in po dosed Chinese Kun Ming mouse assessed as induction of catalepsy by measuring immobility score of 30 seconds administered 30 mins before first assessment; type: organism-based; settings: in vivo, 0.5 h
[10] = test system: Mus musculus; test: Antipsychotic activity in po dosed Chinese Kun Ming mouse assessed as inhibition of apomorphine-induced climbing administered 30 mins before apomorphine challenge measured up to 30 mins; type: functional
[11] = test system: Mus musculus; test: Antipsychotic activity in po dosed Chinese Kun Ming mouse assessed as inhibition of DOI-induced head twitch administered 60 mins before DOI challenge measured up to 15 mins; type: functional
[12] = test system: Mus musculus; test: Neurotoxicity in Chinese Kun Ming mouse assessed as locomotor activity by measuring total distance traveled at 3 mg/kg, po administered 1 hr before test measured for 10 mins (reference value: 13881.4 +/- 8595.8 millimeter); type: toxicity, organism-based; settings: in vivo
[13] = test system: Mus musculus; test: Neurotoxicity in Chinese Kun Ming mouse assessed as locomotor activity by measuring total distance traveled at 1 mg/kg, po administered 1 hr before test measured for 10 mins (reference value: 13881.4 +/- 8595.8 millimeter); type: toxicity, organism-based; settings: in vivo
[14] = test system: Mus musculus; test: Neurotoxicity in Chinese Kun Ming mouse assessed as locomotor activity by measuring total distance traveled at 10 mg/kg, po administered 1 hr before test measured for 10 mins (reference value: 13881.4 +/- 8595.8 millimeter); type: toxicity, organism-based; settings: in vivo

Chain of 5-hydroxytryptamine receptor 2A (P14842 whole entry): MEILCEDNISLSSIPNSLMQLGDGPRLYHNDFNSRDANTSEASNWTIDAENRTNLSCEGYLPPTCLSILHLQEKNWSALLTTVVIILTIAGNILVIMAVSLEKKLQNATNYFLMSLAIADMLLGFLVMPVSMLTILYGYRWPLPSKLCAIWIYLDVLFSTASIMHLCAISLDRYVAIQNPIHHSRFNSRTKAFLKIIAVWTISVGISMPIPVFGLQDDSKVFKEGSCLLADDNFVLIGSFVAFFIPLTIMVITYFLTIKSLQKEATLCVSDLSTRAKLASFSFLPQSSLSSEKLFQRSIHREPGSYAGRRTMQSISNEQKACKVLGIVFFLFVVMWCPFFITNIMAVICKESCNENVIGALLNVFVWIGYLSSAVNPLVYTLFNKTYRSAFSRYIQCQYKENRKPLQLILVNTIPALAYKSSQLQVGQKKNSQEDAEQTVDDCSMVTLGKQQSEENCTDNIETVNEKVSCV
Chain of D(2) dopamine receptor (P61169 whole entry): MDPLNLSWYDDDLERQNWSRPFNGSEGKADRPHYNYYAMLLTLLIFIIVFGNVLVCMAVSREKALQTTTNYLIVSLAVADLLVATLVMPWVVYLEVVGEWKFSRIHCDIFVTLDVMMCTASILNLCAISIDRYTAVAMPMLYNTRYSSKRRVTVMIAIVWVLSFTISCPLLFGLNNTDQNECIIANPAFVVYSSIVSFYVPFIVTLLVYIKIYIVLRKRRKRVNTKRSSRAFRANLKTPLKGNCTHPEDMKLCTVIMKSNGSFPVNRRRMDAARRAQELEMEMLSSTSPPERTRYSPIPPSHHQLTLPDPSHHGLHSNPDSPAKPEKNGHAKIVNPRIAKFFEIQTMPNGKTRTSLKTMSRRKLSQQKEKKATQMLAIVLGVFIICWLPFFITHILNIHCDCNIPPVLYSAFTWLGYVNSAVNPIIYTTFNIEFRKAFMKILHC
Chain of Voltage-gated inwardly rectifying potassium channel KCNH2 (Q12809 whole entry): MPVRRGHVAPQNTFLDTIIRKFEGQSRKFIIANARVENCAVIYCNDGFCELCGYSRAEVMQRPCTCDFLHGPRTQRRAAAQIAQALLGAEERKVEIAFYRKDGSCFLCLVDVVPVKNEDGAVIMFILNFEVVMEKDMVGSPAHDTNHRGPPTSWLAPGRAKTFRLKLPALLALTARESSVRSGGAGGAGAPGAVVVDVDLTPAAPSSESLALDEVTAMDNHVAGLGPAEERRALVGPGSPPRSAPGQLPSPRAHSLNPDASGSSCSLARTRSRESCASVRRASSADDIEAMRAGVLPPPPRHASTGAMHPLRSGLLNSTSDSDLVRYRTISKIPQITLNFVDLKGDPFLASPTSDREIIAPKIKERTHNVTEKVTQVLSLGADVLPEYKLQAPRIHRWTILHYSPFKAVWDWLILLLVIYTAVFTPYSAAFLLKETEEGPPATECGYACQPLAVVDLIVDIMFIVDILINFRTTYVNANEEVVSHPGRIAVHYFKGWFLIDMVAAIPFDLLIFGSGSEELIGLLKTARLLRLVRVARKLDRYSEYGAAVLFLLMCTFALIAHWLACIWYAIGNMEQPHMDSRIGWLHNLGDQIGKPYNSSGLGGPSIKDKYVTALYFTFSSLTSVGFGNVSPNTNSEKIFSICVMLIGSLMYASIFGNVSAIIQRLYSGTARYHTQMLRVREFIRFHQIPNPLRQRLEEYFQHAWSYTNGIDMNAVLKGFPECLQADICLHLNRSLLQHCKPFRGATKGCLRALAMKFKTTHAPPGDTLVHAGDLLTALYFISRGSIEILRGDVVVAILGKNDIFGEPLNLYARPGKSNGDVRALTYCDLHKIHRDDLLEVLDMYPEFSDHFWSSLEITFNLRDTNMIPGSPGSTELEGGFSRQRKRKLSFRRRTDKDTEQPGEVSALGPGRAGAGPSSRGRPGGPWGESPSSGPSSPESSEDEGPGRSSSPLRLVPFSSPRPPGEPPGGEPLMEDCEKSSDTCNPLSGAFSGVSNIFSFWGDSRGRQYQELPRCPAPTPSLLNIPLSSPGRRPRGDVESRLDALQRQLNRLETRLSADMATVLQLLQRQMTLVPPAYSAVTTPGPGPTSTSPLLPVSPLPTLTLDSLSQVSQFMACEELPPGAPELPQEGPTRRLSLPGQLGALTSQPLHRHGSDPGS

| Compound | Ki [1] [nM] | Ki [2] [nM] | Ki [3] [nM] | further results |
| --- | --- | --- | --- | --- |
| c1ccc(N2CCN(CCCOc3ccc(-c4nc5ccccc5o4)cc3)CC2)cc1 | > 10000 | > 10000 | 4680 | – |
| Fc1ccc2c(C3CCN(CCCOc4ccc(-c5nc6cc(Cl)ccc6o5)cc4)CC3)noc2c1 | 660 | > 10000 | 135 | – |
| c1ccc2c(c1)OCC(CN1CCN(CCCOc3ccc(-c4nc5ccccc5o4)cc3)CC1)O2 (stereo unspecified) | > 10000 | > 10000 | 1420 | – |
| Fc1ccc2c(C3CCN(CCCOc4ccc(-c5nc6ccccc6s5)cc4)CC3)noc2c1 | > 10000 | 1760 | 1270 | – |
| CC(c1ccc(OCCCN2CCC(c3noc4cc(F)ccc34)CC2)cc1)c1nc2ccccc2o1 (stereo unspecified) | 60.3 | 89.6 | 30.5 | LD50 [4]: 614 mg/kg; IC50 [5]: 1010 nM |
| Cc1cccc(N2CCN(CCCOc3ccc(-c4nc5ccccc5o4)cc3)CC2)c1C | > 10000 | 4690 | 2140 | – |
| Cc1ccc2oc(-c3ccc(OCCCN4CCC(c5noc6cc(F)ccc56)CC4)cc3)nc2c1 | > 10000 | 76.3 | > 10000 | – |
| c1ccc2oc(-c3ccc(OCCCN4CCC(c5nc6ccccc6o5)CC4)cc3)nc2c1 | > 10000 | 568 | 243 | – |
| COc1cc(OCCCN2CCC(c3noc4cc(F)ccc34)CC2)ccc1-c1nc2ccccc2o1 | 1190 | 1560 | 72.2 | – |
| c1ccc2oc(-c3ccc(OCCCN4CCN(c5nsc6ccccc56)CC4)cc3)nc2c1 | 879 | 970 | 16.9 | – |
| Fc1ccc2c(C3CCN(CCCOc4cccc(-c5nc6ccccc6o5)c4)CC3)noc2c1 | > 10000 | > 10000 | > 10000 | – |
| COc1ccccc1N1CCN(CCCOc2ccc(-c3nc4ccccc4o3)cc2)CC1 | 467 | 46.8 | 29.3 | – |
| Fc1ccc2c(C3CCN(CCCCOc4ccc(-c5nc6ccccc6o5)cc4)CC3)noc2c1 | 2200 | 996 | 729 | – |
| c1cnc(N2CCN(CCCOc3ccc(-c4nc5ccccc5o4)cc3)CC2)nc1 | 198 | 56.2 | 38.5 | – |
| COc1ccccc1N1CCN(CCCOc2ccc(-c3nc4ccccc4[nH]3)cc2)CC1 | 16.3 | 258 | 109 | – |
| c1ccc2oc(-c3ccc(OCCCN4CCC(c5nc6ccccc6s5)CC4)cc3)nc2c1 | > 10000 | 146 | 281 | – |
| O=C(CCCN1CCC(O)(c2ccc(Cl)cc2)CC1)c1ccc(F)cc1 [HALOPERIDOL] | – | – | – | Activity [6]: 744.5 mm; Activity [7]: 3580.6 mm; Activity [8]: 8980.9 mm |
| CN1CCN(C2=Nc3cc(Cl)ccc3Nc3ccccc32)CC1 [CLOZAPINE] | – | – | – | ED50 [9]: 50.5 mg/kg; ED50 [10]: 3.51 mg/kg; ED50 [11]: 4.92 mg/kg |
| c1ccc(N2CCN(CCCOc3ccc(-c4nc5ccccc5o4)cc3)CC2)nc1 | > 10000 | 1990 | 2340 | – |
| O=C(c1ccc(F)cc1F)C1CCN(CCCOc2ccc(-c3nc4ccccc4o3)cc2)CC1 | 408 | 114 | 199 | LD50 [4]: 369 mg/kg |
| Clc1cccc(N2CCN(CCCOc3ccc(-c4nc5ccccc5o4)cc3)CC2)c1Cl | > 10000 | > 10000 | 2890 | – |
| O=C1CN=C(c2ccccc2Cl)c2cc([N+](=O)[O-])ccc2N1 [CLONAZEPAM] | – | – | – | Activity [12]: 4784.1 mm; Activity [13]: 13188.4 mm; Activity [14]: 655.7 mm |
| Fc1ccc2c(C3CCN(CCCOc4ccc(CCc5nc6ccccc6o5)cc4)CC3)noc2c1 | 53.1 | 31.1 | 38.1 | LD50 [4]: 398 mg/kg; IC50 [5]: 630 nM |
| Fc1ccc2c(C3CCN(CCCOc4ccc(-c5nc6ccccc6o5)c(F)c4)CC3)noc2c1 | 143 | 232 | 23.7 | – |
| Cc1cc(-c2nc3ccccc3o2)ccc1OCCCN1CCC(c2noc3cc(F)ccc23)CC1 | 1590 | 2140 | 41.1 | – |
| FC(F)(F)c1cccc(N2CCN(CCCOc3ccc(-c4nc5ccccc5o4)cc3)CC2)c1 | > 10000 | > 10000 | 4480 | – |
| Cc1nc2n(c(=O)c1CCN1CCC(c3noc4cc(F)ccc34)CC1)CCCC2 [RISPERIDONE] | – | – | – | ED50 [9]: 1.3 mg/kg; ED50 [10]: 0.034 mg/kg; ED50 [11]: 0.045 mg/kg |
